The structures appear in SMILES notation.

The assay concerns the target DNA-(apurinic or apyrimidinic site) endonuclease (Homo sapiens, UniProt P27695). Briefly: APE1 Inhibition Assay. Conditions: pH 7.5; 30 °C. The procedure:
To determine the extent of abasic residue cleavage by APE1, recombinant APE1 was preincubated with the potential inhibitors in reaction buffer. Then, the 5-end 32P-labeled oligonucleotide substrate was added. The conversion of incision product was quantitated using PhosphorImager / ImageQuant 5.2 system. The IC50 values were determined by plotting the logarithm of drug concentration against percent inhibition of enzymatic activity. The optimum concentration of APE1 protein in the assay is the concentration at which there is complete conversion of the abasic-site containing oligonucleotide substrate to its cleaved product without subsequent exonuclease activity.

Chain of DNA-(apurinic or apyrimidinic site) endonuclease (P27695 whole entry): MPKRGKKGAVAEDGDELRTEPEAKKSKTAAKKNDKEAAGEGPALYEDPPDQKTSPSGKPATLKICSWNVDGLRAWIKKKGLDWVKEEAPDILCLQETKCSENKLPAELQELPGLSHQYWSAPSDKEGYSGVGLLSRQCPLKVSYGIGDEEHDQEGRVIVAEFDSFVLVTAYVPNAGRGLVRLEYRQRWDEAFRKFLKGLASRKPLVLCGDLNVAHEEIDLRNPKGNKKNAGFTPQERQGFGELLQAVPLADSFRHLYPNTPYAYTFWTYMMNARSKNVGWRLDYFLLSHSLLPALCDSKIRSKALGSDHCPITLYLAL

On to `O=C(O)c1ccc(Sc2ccc(S(=O)(=O)c3ccc(C(=O)O)c(C(=O)O)c3)cc2)cc1` [4-({4-[(4-carboxyphenyl)sulfanyl]benzene}sulfonyl)benzene-1,2-dicarboxylic acid], for which the IC50 worked out at 4 µM.
